Values after ≈ are worked out from the molar mass of the structure shown.
How the values were obtained:
Candida albicans [1] = experiment: Antifungal activity against Candida albicans MTCC 461 assessed as zone of inhibition at 5 mg/ml after 24 hrs by agar well diffusion method; format: functional; settings: MTCC 461, 24 h, read-out: IZ
Aspergillus niger [2] = experiment: Antifungal activity against Aspergillus niger MTCC 282 after 48 hrs by broth dilution method; format: functional; settings: MTCC 282, 48 h
Escherichia coli [3] = experiment: Antimicrobial activity against Escherichia coli MTCC 4351 assessed as zone of inhibition at 5 mg/ml after 24 hrs by agar well diffusion method; format: functional; settings: MTCC 4351, 24 h, read-out: IZ
Candida albicans [4] = experiment: Antifungal activity against Candida albicans MTCC 461 after 48 hrs by broth dilution method; format: functional; settings: MTCC 461, 48 h
Bacillus subtilis [5] = experiment: Antimicrobial activity against Bacillus subtilis MTCC 441 assessed as zone of inhibition at 5 mg/ml after 24 hrs by agar well diffusion method; format: functional; settings: MTCC 441, 24 h, read-out: IZ
Candida tropicalis [6] = experiment: Antifungal activity against Candida tropicalis MTCC 183 after 48 hrs by broth dilution method; format: functional; settings: MTCC 183, 48 h
Rattus norvegicus [7] = experiment: Antiinflammatory activity in rat assessed as inhibition of carrageenan-induced paw edema administered 30 mins prior to carrageenan challenge measured after 3 hrs relative to control; format: functional
Rattus norvegicus [8] = experiment: Antiinflammatory activity in rat assessed as inhibition of carrageenan-induced paw edema administered 30 mins prior to carrageenan challenge measured after 1 hr relative to control; format: functional
Klebsiella pneumoniae [9] = experiment: Antimicrobial activity against Klebsiella pneumoniae MTCC 3384 after 24 hrs by broth dilution method; format: functional; settings: MTCC 3384, 24 h
Aspergillus niger [10] = experiment: Antifungal activity against Aspergillus niger MTCC 282 assessed as zone of inhibition at 5 mg/ml after 24 hrs by agar well diffusion method; format: functional; settings: MTCC 282, 24 h, read-out: IZ
MDA-MB-231 [11] = experiment: Cytotoxicity against human MDA-MB-231 cells assessed as cell death at 5 ug/ml after 48 hrs by MTT assay; format: cell-based; settings: mda-mb-231, 48 h
Staphylococcus aureus [12] = experiment: Antimicrobial activity against Staphylococcus aureus MTCC 3160 after 24 hrs by broth dilution method; format: functional; settings: MTCC 3160, 24 h
Rattus norvegicus [13] = experiment: Antiinflammatory activity in rat assessed as inhibition of carrageenan-induced paw edema administered 30 mins prior to carrageenan challenge measured after 2 hrs relative to control; format: functional
Escherichia coli [14] = experiment: Antimicrobial activity against Escherichia coli MTCC 4351 after 24 hrs by broth dilution method; format: functional; settings: MTCC 4351, 24 h
Staphylococcus aureus [15] = experiment: Antimicrobial activity against Staphylococcus aureus MTCC 3160 assessed as zone of inhibition at 5 mg/ml after 24 hrs by agar well diffusion method; format: functional; settings: MTCC 3160, 24 h, read-out: IZ
MDA-MB-231 [16] = experiment: Cytotoxicity against human MDA-MB-231 cells assessed as cell death at 1 ug/ml after 48 hrs by MTT assay; format: cell-based; settings: mda-mb-231, 48 h
Candida tropicalis [17] = experiment: Antifungal activity against Candida tropicalis MTCC 183 assessed as zone of inhibition at 5 mg/ml after 24 hrs by agar well diffusion method; format: functional; settings: MTCC 183, 24 h, read-out: IZ
MDA-MB-231 [18] = experiment: Cytotoxicity against human MDA-MB-231 cells assessed as cell death at 10 ug/ml after 48 hrs by MTT assay; format: cell-based; settings: mda-mb-231, 48 h
MDA-MB-231 [19] = experiment: Cytotoxicity against human MDA-MB-231 cells assessed as cell death at 2.5 ug/ml after 48 hrs by MTT assay; format: cell-based; settings: mda-mb-231, 48 h
Penicillium chrysogenum [20] = experiment: Antifungal activity against Penicillium notatum after 48 hrs by broth dilution method; format: functional
Penicillium chrysogenum [21] = experiment: Antifungal activity against Penicillium notatum assessed as zone of inhibition at 5 mg/ml after 24 hrs by agar well diffusion method; format: functional; settings: read-out: IZ
Klebsiella pneumoniae [22] = experiment: Antimicrobial activity against Klebsiella pneumoniae MTCC 3384 assessed as zone of inhibition at 5 mg/ml after 24 hrs by agar well diffusion method; format: functional; settings: MTCC 3384, 24 h, read-out: IZ
Bacillus subtilis [23] = experiment: Antimicrobial activity against Bacillus subtilis MTCC 441 after 24 hrs by broth dilution method; format: functional; settings: MTCC 441, 24 h

CCCn1c(-c2ccc(Cl)cc2Cl)nc2cc(C(=O)N/N=C/c3ccccc3Cl)ccc21
zone of inhibition at 5000 µg/mL (Candida albicans [1]): 17 mm | MIC (Aspergillus niger [2]): 6.25 µg/mL (≈ 12.9 µM) | zone of inhibition at 5000 µg/mL (Escherichia coli [3]): 18 mm | MIC (Candida albicans [4]): 12.5 µg/mL (≈ 25.7 µM) | zone of inhibition at 5000 µg/mL (Bacillus subtilis [5]): 16 mm | MIC (Candida tropicalis [6]): 6.25 µg/mL (≈ 12.9 µM) | inhibition (INH) (Rattus norvegicus [7]): 71.97% | inhibition (INH) (Rattus norvegicus [8]): 65.55% | MIC (Klebsiella pneumoniae [9]): 25 µg/mL (≈ 51.5 µM) | zone of inhibition at 5000 µg/mL (Aspergillus niger [10]): 21 mm | Activity (MDA-MB-231 [11]): 1.61% | MIC (Staphylococcus aureus [12]): 25 µg/mL (≈ 51.5 µM) | inhibition (INH) (Rattus norvegicus [13]): 70.62% | MIC (Escherichia coli [14]): 12.5 µg/mL (≈ 25.7 µM) | zone of inhibition at 5000 µg/mL (Staphylococcus aureus [15]): 15 mm | Activity (MDA-MB-231 [16]): -2.05% | zone of inhibition at 5000 µg/mL (Candida tropicalis [17]): 18 mm | Activity (MDA-MB-231 [18]): 2.78% | Activity (MDA-MB-231 [19]): -0.44% | MIC (Penicillium chrysogenum [20]): 12.5 µg/mL (≈ 25.7 µM) | zone of inhibition at 5000 µg/mL (Penicillium chrysogenum [21]): 15 mm | zone of inhibition at 5000 µg/mL (Klebsiella pneumoniae [22]): 17 mm | MIC (Bacillus subtilis [23]): 25 µg/mL (≈ 51.5 µM)

CCCn1c(-c2ccc(Cl)cc2Cl)nc2cc(C(=O)N/N=C/c3cccc(Br)c3)ccc21
zone of inhibition at 5000 µg/mL (Candida albicans [1]): 16 mm | MIC (Aspergillus niger [2]): 3.12 µg/mL (≈ 5.88 µM) | zone of inhibition at 5000 µg/mL (Escherichia coli [3]): 18 mm | MIC (Candida albicans [4]): 12.5 µg/mL (≈ 23.6 µM) | zone of inhibition at 5000 µg/mL (Bacillus subtilis [5]): 12 mm | MIC (Candida tropicalis [6]): 12.5 µg/mL (≈ 23.6 µM) | inhibition (INH) (Rattus norvegicus [7]): 72.11% | inhibition (INH) (Rattus norvegicus [8]): 65.18% | MIC (Klebsiella pneumoniae [9]): 25 µg/mL (≈ 47.1 µM) | zone of inhibition at 5000 µg/mL (Aspergillus niger [10]): 22 mm | Activity (MDA-MB-231 [11]): -2.12% | MIC (Staphylococcus aureus [12]): 6.25 µg/mL (≈ 11.8 µM) | inhibition (INH) (Rattus norvegicus [13]): 58.04% | MIC (Escherichia coli [14]): 12.5 µg/mL (≈ 23.6 µM) | zone of inhibition at 5000 µg/mL (Staphylococcus aureus [15]): 18 mm | Activity (MDA-MB-231 [16]): -12.5% | zone of inhibition at 5000 µg/mL (Candida tropicalis [17]): 16 mm | Activity (MDA-MB-231 [18]): 7.46% | Activity (MDA-MB-231 [19]): -1.17% | MIC (Penicillium chrysogenum [20]): 25 µg/mL (≈ 47.1 µM) | zone of inhibition at 5000 µg/mL (Penicillium chrysogenum [21]): 15 mm | zone of inhibition at 5000 µg/mL (Klebsiella pneumoniae [22]): 17 mm | MIC (Bacillus subtilis [23]): 50 µg/mL (≈ 94.3 µM)

CCCn1c(-c2ccc(Cl)cc2Cl)nc2cc(C(=O)N/N=C/c3cc(Br)ccc3O)ccc21
zone of inhibition at 5000 µg/mL (Candida albicans [1]): 21 mm | MIC (Aspergillus niger [2]): 3.12 µg/mL (≈ 5.71 µM) | zone of inhibition at 5000 µg/mL (Escherichia coli [3]): 22 mm | MIC (Candida albicans [4]): 3.12 µg/mL (≈ 5.71 µM) | zone of inhibition at 5000 µg/mL (Bacillus subtilis [5]): 22 mm | MIC (Candida tropicalis [6]): 6.25 µg/mL (≈ 11.4 µM) | inhibition (INH) (Rattus norvegicus [7]): 45.98% | inhibition (INH) (Rattus norvegicus [8]): 44.81% | MIC (Klebsiella pneumoniae [9]): 6.25 µg/mL (≈ 11.4 µM) | zone of inhibition at 5000 µg/mL (Aspergillus niger [10]): 22 mm | Activity (MDA-MB-231 [11]): 0.07% | MIC (Staphylococcus aureus [12]): 3.12 µg/mL (≈ 5.71 µM) | inhibition (INH) (Rattus norvegicus [13]): 47.41% | MIC (Escherichia coli [14]): 3.12 µg/mL (≈ 5.71 µM) | zone of inhibition at 5000 µg/mL (Staphylococcus aureus [15]): 22 mm | Activity (MDA-MB-231 [16]): -6.58% | zone of inhibition at 5000 µg/mL (Candida tropicalis [17]): 18 mm | Activity (MDA-MB-231 [18]): 4.46% | Activity (MDA-MB-231 [19]): -6.21% | MIC (Penicillium chrysogenum [20]): 6.25 µg/mL (≈ 11.4 µM) | zone of inhibition at 5000 µg/mL (Penicillium chrysogenum [21]): 18 mm | zone of inhibition at 5000 µg/mL (Klebsiella pneumoniae [22]): 20 mm | MIC (Bacillus subtilis [23]): 3.12 µg/mL (≈ 5.71 µM)
